# Data reported in patent publication US20140066362A1, “METHOD FOR TREATING INFECTIONS BY TARGETING MICROBIAL H2S-PRODUCING ENZYMES” (NEW YORK UNIVERSITY, priority 2011, published 2014).
# Tests used:
# Wt E. coli cells = type: cell-based; settings: then H2O2 2 mM for 10 min
# E. coli cells = type: cell-based; settings: pretreatment for 3 min, 2,2′-dipyridyl 0.05 mM or thiourea 15 mM, then Gm
# CBS/CSE = type: cell-based, B. anthracis, S. aureus, P. aeruginosa; settings: chemical inhibition of CSE (PAG) or CBS (AOAA), 18 hours culture
# pBR322 plasmid DNA = assay: Electrophoresis assay of DNA damage in vitro (Fenton reaction); settings: NaHS:Fe3+ 6:1, with Cys and H2O2, pH 8
# recA′::gfp E. coli = type: cell-based; settings: NaHS 200 μM, aspartate-treated cells
# [1] = test system: 3MST-deficient E. coli cells; type: cell-based; settings: diamide 25 μM, gentamicin 50 μg/ml for 5 min
smiles,measurement,setting,value
"c1ccc(-c2ccccn2)nc1 [2,2′-dipyridyl]",Protection against peroxide (in words),Wt E. coli cells; dipyridyl 0.5 mM pretreatment for 1 min,protected them rapidly against peroxide
same,Effect on toxicity of Gm,E. coli cells,substantially decreased the toxicity of Gm
"NOCC(=O)O [AOAA, amino-oxyacetate]",Effect on H2S production (PbS staining),CBS/CSE,greatly decreased or eliminated PbS staining
[Na+].[SH-] [NaHS],Increase in resistance to peroxide,Wt E. coli cells; NaHS 200 μM pretreatment for 1 min,> 20 times
same,Inhibition of Fenton-mediated DNA damage,pBR322 plasmid DNA,completely inhibited DNA damage
same,Effect on hyper-induction of SOS by gentamicin,recA′::gfp E. coli,completely suppressed the hyper-induction of SOS by gentamicin
CN(C)C(=O)/N=N/C(=O)N(C)C [diamide],Protection against Gm,[1],protected 3MST mutant cells against Gm
